BigSolDB 2.1

COc1cc(/C=C/C(=O)O)cc(OC)c1OC
solubility (mole fraction)
Conditions	278.15 K	283.15 K	288.15 K	293.15 K	298.15 K	303.15 K	308.15 K	313.15 K	318.15 K	323.15 K
in acetone	0.0175	0.0201	0.0232	0.0265	0.0301	0.0343	0.0391	0.044	0.0492	0.0551
in ethanol	0.00626	0.0085	0.0114	0.0153	0.0201	0.0261	0.0341	0.044	0.057	0.0725
in isopropanol	0.00465	0.0063	0.00867	0.0121	0.0163	0.0215	0.0289	0.039	0.0511	0.0665
in methanol	0.00662	0.00922	0.0127	0.0175	0.0236	0.0315	0.0417	0.0548	0.0717	0.0943
in water	4.67e-05	5.3e-05	6.05e-05	6.8e-05	7.61e-05	8.55e-05	9.58e-05	0.000107	0.000118	0.000131
